Measured values: patent publication US12180193B2, “Accelerating fibrosarcoma protein degrading compounds and associated methods of use” (Arvinas Operations, Inc., priority 2020, dated 2024)

Tests used:
[1] = target: T1, BRAF V600E (Homo sapiens, UniProt P15056, V600E); experiment: Cellular assay of target protein degradation, T-Rex 293 cells stably transfected with HA-BRAF_V600E (HA immunofluorescence, high content imaging); type: cell-based; details: T-Rex 293 HA-BRAF V600E; for DC50: half maximal degradation, read-out: BRaf V600E DC50; for Dmax: maximum degradation observed
T1 construct: expressed in transfected cells
How it was run: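 Read-out is anti-HA immunofluorescence quantified by high-content imaging, giving half-maximal degradation concentration (DC50) and maximum degradation (Dmax, percent of control). Cells expressed the construct under 1 ng/mL doxycycline and received compound (1 μM to 0.1 nM final, 0.1% DMSO) for 24 h at 37 °C.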

[2] = target: T2, BRAF G466V (Homo sapiens, UniProt P15056, G466V); experiment: Cellular assay of target protein degradation, T-Rex 293 cells stably transfected with HA-BRAF G466V (HA immunofluorescence, high content imaging); type: cell-based; details: T-Rex 293 HA-BRAF G466V; for DC50: half maximal degradation, read-out: BRaf G466V DC50; for Dmax: maximum degradation observed
T2 construct: expressed in transfected cells
How it was run: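 First, stably transfected T-Rex 293 cells were plated with 0.75 ng/mL doxycycline and grown for 24 hours. Next, compound (final 30 nM to 3 pM, 0.1% DMSO) was added for another 24 hours at 37° C. Finally, cells were fixed, stained for HA and imaged.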

T2 sequence (P15056 whole entry G466V): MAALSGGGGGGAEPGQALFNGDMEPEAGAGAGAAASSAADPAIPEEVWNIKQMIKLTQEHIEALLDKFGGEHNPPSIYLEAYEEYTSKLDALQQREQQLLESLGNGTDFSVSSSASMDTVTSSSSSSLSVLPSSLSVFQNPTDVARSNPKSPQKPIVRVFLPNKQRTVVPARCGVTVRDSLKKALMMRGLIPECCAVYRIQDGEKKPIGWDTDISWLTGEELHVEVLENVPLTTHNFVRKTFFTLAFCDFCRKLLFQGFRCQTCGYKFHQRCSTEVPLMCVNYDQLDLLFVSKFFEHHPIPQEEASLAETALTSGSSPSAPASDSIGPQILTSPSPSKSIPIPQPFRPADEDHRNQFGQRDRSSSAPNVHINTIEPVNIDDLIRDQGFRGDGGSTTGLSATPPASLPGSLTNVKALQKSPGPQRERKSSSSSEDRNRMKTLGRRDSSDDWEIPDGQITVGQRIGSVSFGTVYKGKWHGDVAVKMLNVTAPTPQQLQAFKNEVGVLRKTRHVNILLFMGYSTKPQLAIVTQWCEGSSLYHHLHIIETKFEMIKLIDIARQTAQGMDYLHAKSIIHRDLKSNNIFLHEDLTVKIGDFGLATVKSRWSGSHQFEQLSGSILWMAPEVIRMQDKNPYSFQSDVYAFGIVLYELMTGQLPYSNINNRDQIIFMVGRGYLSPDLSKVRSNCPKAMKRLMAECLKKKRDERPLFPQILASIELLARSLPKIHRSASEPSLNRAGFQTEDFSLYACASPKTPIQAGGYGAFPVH
T1 sequence (P15056 whole entry V600E): as the sequence (P15056 whole entry G466V) above, with V466G, V600E counted along it

COc1cc(OCCN2CCN(CCOc3ccc(-c4cnc5[nH]cc(C(=O)c6c(F)ccc(NS(=O)(=O)N7CC[C@@H](F)C7)c6F)c5c4)cc3)CC2)cc2c1C(=O)N([C@@H]1CCC(=O)NC1=O)C2 [Compound 45, (3R)-N-(3-{5-[4-(2-{4-[2-({2-[(3R)-2,6-dioxopiperidin-3-yl]-7-methoxy-1-oxo-2,3-dihydro-1H-isoindol-5-yl}oxy)ethyl]piperazin-1-yl}ethoxy)phenyl]-1H-pyrrolo[2,3-b]pyridine-3-carbonyl}-2,4-difluorophenyl)-3-fluoropyrrolidine-1-sulfonamide]
DC50 [1]: 5 to 50 nM | Dmax [1]: 35 to 70% | DC50 [2]: < 1 nM | Dmax [2]: 35 to 70%

CCCS(=O)(=O)Nc1ccc(F)c(C(=O)c2c[nH]c3ncc(-c4ccc(N5CCN(CC6CCN(c7ccc8c(c7)CN(C7CCC(=O)NC7=O)C8=O)CC6)CC5)cc4)cc23)c1F (centres unmarked) [Compound 244, N-[3-(5-{4-[4-({1-[2-(2,6-dioxopiperidin-3-yl)-1-oxo-2,3-dihydro-1H-isoindol-5-yl]piperidin-4-yl}methyl)piperazin-1-yl]phenyl}-1H-pyrrolo[2,3-b]pyridine-3-carbonyl)-2,4-difluorophenyl]propane-1-sulfonamide]
DC50 [1]: 5 to 50 nM | Dmax [1]: 35 to 70% | DC50 [2]: 1 to 10 nM | Dmax [2]: > 70%

COc1cc(N2CC(CN3CCN(c4ccc(-c5cnc6[nH]cc(C(=O)c7c(F)ccc(NS(=O)(=O)N8CC[C@@H](F)C8)c7F)c6c5)cc4)CC3)C2)cc2c1C(=O)N(C1CCC(=O)NC1=O)C2 (stereo partly drawn) [Compound 70, (3R)-N-[3-(5-{4-[4-({1-[2-(2,6-dioxopiperidin-3-yl)-7-methoxy-1-oxo-2,3-dihydro-1H-isoindol-5-yl]azetidin-3-yl}methyl)piperazin-1-yl]phenyl}-1H-pyrrolo[2,3-b]pyridine-3-carbonyl)-2,4-difluorophenyl]-3-fluoropyrrolidine-1-sulfonamide]
DC50 [1]: 5 to 50 nM | Dmax [1]: 35 to 70% | DC50 [2]: < 1 nM | Dmax [2]: 35 to 70%

COc1c(NS(=O)(=O)N2CC[C@@H](F)C2)ccc(F)c1C(=O)c1c[nH]c2ncc(-c3ccc(N4CCC(CN5CCC(c6ccc7c(c6)CN([C@H]6CCC(=O)NC6=O)C7=O)CC5)CC4)cc3)cc12 [Compound 207, (3R)—N-{3-[5-(4-{4-[(4-{2-[(3S)-2,6-dioxopiperidin-3-yl]-1-oxo-2,3-dihydro-1H-isoindol-5-yl}piperidin-1-yl)methyl]piperidin-1-yl}phenyl)-1H-pyrrolo[2,3-b]pyridine-3-carbonyl]-4-fluoro-2-methoxyphenyl}-3-fluoropyrrolidine-1-sulfonamide]
DC50 [1]: 5 to 50 nM | Dmax [1]: 35 to 70% | DC50 [2]: < 1 nM | Dmax [2]: 35 to 70%

COc1cc(N2CC3(CC(CN4CCN(c5ccc(-c6cnc7[nH]cc(C(=O)c8c(F)ccc(NS(=O)(=O)N9CC[C@@H](F)C9)c8F)c7c6)cc5)CC4)C3)C2)cc2c1C(=O)N(C1CCC(=O)NC1=O)C2 (stereo partly drawn) [Compound 59, (3R)-N-[3-(5-{4-[4-({2-[2-(2,6-dioxopiperidin-3-yl)-7-methoxy-1-oxo-2,3-dihydro-1H-isoindol-5-yl]-2-azaspiro[3.3]heptan-6-yl}methyl)piperazin-1-yl]phenyl}-1H-pyrrolo[2,3-b]pyridine-3-carbonyl)-2,4-difluorophenyl]-3-fluoropyrrolidine-1-sulfonamide]
DC50 [1]: 5 to 50 nM | Dmax [1]: 35 to 70% | DC50 [2]: 1 to 10 nM | Dmax [2]: > 70%

O=C1CC[C@H](NC(=O)c2ccc(C3CCN(CC4CCN(c5ncc(-c6cnc7[nH]cc(C(=O)c8c(F)ccc(NS(=O)(=O)N9CC[C@@H](F)C9)c8F)c7c6)cn5)CC4)CC3)cc2F)C(=O)N1 [Compound 375, 4-(1-{[1-(5-{3-[2,6-difluoro-3-({[(3R)-3-fluoropyrrolidin-1-yl]sulfonyl}amino)benzoyl]-1H-pyrrolo[2,3-b]pyridin-5-yl}pyrimidin-2-yl)piperidin-4-yl]methyl}piperidin-4-yl)-N-[(3S)-2,6-dioxopiperidin-3-yl]-2-fluorobenzamide]
DC50 [1]: 50 to 500 nM | Dmax [1]: 35 to 70% | DC50 [2]: 1 to 10 nM | Dmax [2]: 35 to 70%

O=C1CC[C@H](NC(=O)c2ccc(OCCCCN3CCN(c4ccc(-c5cnc6[nH]cc(C(=O)c7c(F)ccc(NS(=O)(=O)N8CC[C@@H](F)C8)c7F)c6c5)cc4)CC3)cc2F)C(=O)N1 [Compound 349, 4-{4-[4-(4-{3-[2,6-difluoro-3-({[(3R)-fluoropyrrolidin-1-yl]sulfonyl}amino)benzoyl]-1H-pyrrolo[2,3-b]pyridin-5-yl}phenyl)piperazin-1-yl]butoxy}-N-[(3S)-2,6-dioxopiperidin-3-yl]-2-fluorobenzamide]
DC50 [1]: > 500 nM | Dmax [1]: > 70% | DC50 [2]: > 30 nM

O=C1CCC(N2Cc3cc(OCCCCN4CCN(c5ccc(-c6cnc7[nH]cc(C(=O)c8c(F)ccc(NS(=O)(=O)N9CCC(F)(F)C9)c8F)c7c6)cc5)CC4)ccc3C2=O)C(=O)N1 (centres unmarked) [Compound 251, N-[3-(5-{4-[4-(4-{[2-(2,6-dioxopiperidin-3-yl)-1-oxo-2,3-dihydro-1H-isoindol-5-yl]oxy}butyl)piperazin-1-yl]phenyl}-1H-pyrrolo[2,3-b]pyridine-3-carbonyl)-2,4-difluorophenyl]-3,3-difluoropyrrolidine-1-sulfonamide]
DC50 [1]: 5 to 50 nM | Dmax [1]: 35 to 70% | DC50 [2]: 1 to 10 nM | Dmax [2]: 35 to 70%

O=C1CC[C@@H](NC(=O)c2ccc(C3CCN(CC4CCN(c5ccc(-c6cnc7[nH]cc(C(=O)c8c(F)ccc(NS(=O)(=O)N9CC[C@@H](F)C9)c8F)c7c6)cc5)CC4)CC3)cc2F)C(=O)N1 [Compound 48, 4-(1-{[1-(4-{3-[2,6-difluoro-3-({[(3R)-3-fluoropyrrolidin-1-yl]sulfonyl}amino)benzoyl]-1H-pyrrolo[2,3-b]pyridin-5-yl}phenyl)piperidin-4-yl]methyl}piperidin-4-yl)-N-[(3R)-2,6-dioxopiperidin-3-yl]-2-fluorobenzamide]
DC50 [1]: 50 to 500 nM | Dmax [1]: < 35% | DC50 [2]: 1 to 10 nM | Dmax [2]: < 35%

C[C@H]1CCCN1S(=O)(=O)Nc1ccc(F)c(C(=O)c2c[nH]c3ncc(-c4ccc(N5CCC(CN6CCC(c7ccc8c(c7)CN(C7CCC(=O)NC7=O)C8=O)CC6)CC5)cc4)cc23)c1F (stereo partly drawn) [Compound 264, (2S)-N-[3-(5-{4-[4-({4-[2-(2,6-dioxopiperidin-3-yl)-1-oxo-2,3-dihydro-1H-isoindol-5-yl]piperidin-1-yl}methyl)piperidin-1-yl]phenyl}-1H-pyrrolo[2,3-b]pyridine-3-carbonyl)-2,4-difluorophenyl]-2-methylpyrrolidine-1-sulfonamide]
DC50 [1]: 5 to 50 nM | Dmax [1]: 35 to 70% | DC50 [2]: 1 to 10 nM | Dmax [2]: 35 to 70%

O=C1CC[C@@H](N2Cc3cc([C@@H](O)CCN4CCC(c5ccc(-c6cnc7[nH]cc(C(=O)c8c(F)ccc(NS(=O)(=O)N9CC[C@@H](F)C9)c8F)c7c6)cc5)CC4)ccc3C2=O)C(=O)N1 [Compound 72, (3R)-N-{3-[5-(4-{1-[(3S)-3-{2-[(3R)-2,6-dioxopiperidin-3-yl]-1-oxo-2,3-dihydro-1H-isoindol-5-yl}-3-hydroxypropyl]piperidin-4-yl}phenyl)-1H-pyrrolo[2,3-b]pyridine-3-carbonyl]-2,4-difluorophenyl}-3-fluoropyrrolidine-1-sulfonamide]
DC50 [1]: 5 to 50 nM | Dmax [1]: < 35% | DC50 [2]: 1 to 10 nM | Dmax [2]: 35 to 70%

C[C@H]1C[C@@H](CN2CCC(c3ccc4c(c3)CN([C@H]3CCC(=O)NC3=O)C4=O)CC2)CCN1c1ccc(-c2cnc3[nH]cc(C(=O)c4c(F)ccc(NS(=O)(=O)N5CC[C@@H](F)C5)c4F)c3c2)cc1 [Compound 239, (3R)-N-[3-(5-{4-[(2S,4S)-4-[(4-{2-[(3S)-2,6-dioxopiperidin-3-yl]-1-oxo-2,3-dihydro-1H-isoindol-5-yl}piperidin-1-yl)methyl]-2-methylpiperidin-1-yl]phenyl}-1H-pyrrolo[2,3-b]pyridine-3-carbonyl)-2,4-difluorophenyl]-3-fluoropyrrolidine-1-sulfonamide]
DC50 [1]: 5 to 50 nM | Dmax [1]: 35 to 70% | DC50 [2]: 1 to 10 nM | Dmax [2]: > 70%

O=C1CCC(N2Cc3cc(CCCCN4CCC(c5ccc(-c6cnc7[nH]cc(C(=O)c8c(F)ccc(NS(=O)(=O)N9CC[C@@H](F)C9)c8F)c7c6)cc5)CC4)ccc3C2=O)C(=O)N1 (stereo partly drawn) [Compound 332, (3R)-N-(3-{5-[4-(1-{4-[2-(2,6-dioxopiperidin-3-yl)-1-oxo-2,3-dihydro-1H-isoindol-5-yl]butyl}piperidin-4-yl)phenyl]-1H-pyrrolo[2,3-b]pyridine-3-carbonyl}-2,4-difluorophenyl)-3-fluoropyrrolidine-1-sulfonamide]
DC50 [1]: 5 to 50 nM | Dmax [1]: 35 to 70% | DC50 [2]: 1 to 10 nM | Dmax [2]: > 70%

O=C1CC[C@@H](NC(=O)c2ccc(N3CCC(CN4CCN(c5ccc(-c6cnc7[nH]cc(C(=O)c8c(F)ccc(NS(=O)(=O)N9CC[C@@H](F)C9)c8F)c7c6)cc5)CC4)CC3)cc2F)C(=O)N1 [Compound 340]
DC50 [1]: 50 to 500 nM | Dmax [1]: < 35% | DC50 [2]: 1 to 10 nM | Dmax [2]: 35 to 70%

O=C1CCC(N2Cc3cc(CCCN4CC5(C4)CN(c4ccc(-c6cnc7[nH]cc(C(=O)c8c(F)ccc(NS(=O)(=O)N9CC[C@@H](F)C9)c8F)c7c6)cc4F)C5)ccc3C2=O)C(=O)N1 (stereo partly drawn) [Compound 310, (3R)-N-(3-{5-[4-(6-{3-[2-(2,6-dioxopiperidin-3-yl)-1-oxo-2,3-dihydro-1H-isoindol-5-yl]propyl}-2,6-diazaspiro[3.3]heptan-2-yl)-3-fluorophenyl]-1H-pyrrolo[2,3-b]pyridine-3-carbonyl}-2,4-difluorophenyl)-3-fluoropyrrolidine-1-sulfonamide]
DC50 [1]: 5 to 50 nM | Dmax [1]: 35 to 70% | DC50 [2]: 1 to 10 nM | Dmax [2]: > 70%
